Values after ≈ are worked out from the molar mass of the structure shown.

Broadly, the MIC is the smallest concentration in the dilution series that meets the test's criterion for growth inhibition. A low value points to inhibition by little substance.

Assay type in all cases: cell-based
One assay deals with Escherichia coli No. 73. The assay can be described thus: Antibacterial activity (MIC), Escherichia coli No. 73. On the procedure:
(§1) Free acids found in Examples 2 to 5 are dissolved in dilute aqueous sodium hydrogencarbonate solution to yield the corresponding aqueous sodium salts solutions.

Assay [1] has as its system Klebsilla pneumoniae No. 363. The assay can be described thus: Antibacterial activity (MIC), Klebsiella pneumoniae No. 363. As for the experimental part:
as §1

The test system of assay [2] is gram negative bacteria resistant to cephalosporins. Nature of the assay: antibacterial activity against gram negative bacteria resistant to cephalosporins. The following applies: compared with the compound wherein Y is hydrogen.
[3] abbreviates: NO.363, Klebsiella pneumoniae No. 363, innoculum size 10^6.
[4] abbreviates: NO.363, Klebsiella pneumoniae No. 363, innoculum size 10^8.

As to `CCN1CCN(C(=O)NC(C(=O)N[C@@H]2C(=O)N3C(C(=O)O)=C(CSc4nnnn4C)CS[C@H]23)c2ccc(O)cc2)C(=O)C1=O` (stereo partly shown) [Y H], the MIC was 25 µg/mL (≈ 38.7 µM) against Escherichia coli No. 73 (innoculum size 10^6), above 100 µg/mL with Escherichia coli No. 73 (innoculum size 10^8), 100 µg/mL (≈ 155 µM) in assay [1] (setting [3]) and above 100 µg/mL in assay [1] (setting [4]).
For the compound `CCN1CCN(C(=O)NC(C(=O)NC2(OC)C(=O)N3C(C(=O)O)=C(CSc4nnnn4C)CSC32)c2ccc(O)cc2)C(=O)C1=O` (stereo not shown) [Y OCH3], the MIC turned out to be 1.6 µg/mL (≈ 2.37 µM) against Escherichia coli No. 73 (innoculum size 10^6), 3.1 µg/mL (≈ 4.59 µM) in the assay on Escherichia coli No. 73 (innoculum size 10^8), 0.8 µg/mL (≈ 1.18 µM) in assay [1] (setting [3]) and 1.6 µg/mL (≈ 2.37 µM) in assay [1] (setting [4]). Besides, the “antibacterial activity against gram negative bacteria resistant to cephalosporins” value in assay [2] was “more potent antibacterial activity”.
Consider `CO[C@@]1(NC(=O)Cc2cccs2)C(=O)N2C(C(=O)O)=C(COC(N)=O)CS[C@@H]21` [cefoxitin], for which the MIC against Escherichia coli No. 73 (innoculum size 10^6) stood at 12.5 µg/mL (≈ 29.2 µM); with Escherichia coli No. 73 (innoculum size 10^8), 12.5 µg/mL (≈ 29.2 µM); in assay [1] (setting [3]) it was 1.6 µg/mL (≈ 3.74 µM); in assay [1] (setting [4]), 6.3 µg/mL (≈ 14.7 µM).

The values above are taken from US4211779A, “7α-Methoxy substituted cephalosporins” (Shionogi & Co., Ltd., priority 1976, dated 1980).
